{
  "source": "ChEMBL document CHEMBL3525919",
  "about": "“Potent inhibition of human sulfotransferase 1A1 by 17α-ethinylestradiol: role of 3'-phosphoadenosine 5'-phosphosulfate binding and structural rearrangements in regulating inhibition and activity” (Drug Metab Dispos, 2012)",
  "key": {"Sulfotransferase 1A1 [1]": {"molecular_target": "T1, Sulfotransferase 1A1 (Homo sapiens, UniProt P50225)", "T1 sequence (P50225 whole entry)": "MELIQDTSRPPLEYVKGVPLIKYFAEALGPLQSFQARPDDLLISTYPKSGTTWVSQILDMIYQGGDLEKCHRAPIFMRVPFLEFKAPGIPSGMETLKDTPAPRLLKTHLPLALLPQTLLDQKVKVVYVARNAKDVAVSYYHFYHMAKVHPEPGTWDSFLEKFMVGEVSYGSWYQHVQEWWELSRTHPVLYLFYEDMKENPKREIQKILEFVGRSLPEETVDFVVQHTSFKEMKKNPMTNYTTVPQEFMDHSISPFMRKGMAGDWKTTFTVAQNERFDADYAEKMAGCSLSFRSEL", "experiment": "Binding affinity to human SULT1A1 expressed in Escherichia coli assessed as change in intrinsic fluorescence", "format": "ADME"}, "Sulfotransferase 1A1 [2]": {"molecular_target": "T1, Sulfotransferase 1A1", "experiment": "Binding affinity to human SULT1A1 expressed in Escherichia coli assessed as change in intrinsic fluorescence in presence of 3',5'-phosphoadenosine", "format": "ADME"}, "Sulfotransferase 1A1 [3]": {"molecular_target": "T1, Sulfotransferase 1A1", "experiment": "Inhibition of human SULT1A1 expressed in Escherichia coli assessed as 17beta-estradiol sulfation at 100 nM by Michaelis-Menten equation analysis"}, "Sulfotransferase 1A1 [4]": {"molecular_target": "T1, Sulfotransferase 1A1", "experiment": "Inhibition of human SULT1A1 expressed in Escherichia coli assessed as p-nitrophenol sulfation at 100 nM by Michaelis-Menten equation analysis"}, "Sulfotransferase 1A1 [5]": {"molecular_target": "T1, Sulfotransferase 1A1", "experiment": "Inhibition of human SULT1A1 expressed in Escherichia coli assessed as beta-naphthol sulfation at 100 nM by Michaelis-Menten equation analysis"}, "Sulfotransferase 1A1 [6]": {"molecular_target": "T1, Sulfotransferase 1A1", "experiment": "Inhibition of SULT1A1 in human MCF7 cells assessed as 17beta-estradiol sulfation", "format": "cell-based"}},
  "data": [
    {"compound": "C#C[C@]1(O)CC[C@H]2[C@@H]3CCc4cc(O)ccc4[C@H]3CC[C@@]21C", "note": "[ETHINYL ESTRADIOL]", "values": [
      {"measurement": "Kd", "setting": "Sulfotransferase 1A1 [1]", "value": 500, "unit": "nM"},
      {"measurement": "Kd", "setting": "Sulfotransferase 1A1 [2]", "value": 4.3, "unit": "nM"},
      {"measurement": "Ki", "setting": "Sulfotransferase 1A1 [3]", "value": 14.9, "unit": "nM"},
      {"measurement": "Ki", "setting": "Sulfotransferase 1A1 [4]", "value": 8.9, "unit": "nM"},
      {"measurement": "Ki", "setting": "Sulfotransferase 1A1 [5]", "value": 19, "unit": "nM"},
      {"measurement": "IC50", "setting": "Sulfotransferase 1A1 [6]", "value": 20, "unit": "nM"}
    ]},
    {"compound": "C[C@]12CC[C@@H]3c4ccc(O)cc4CC[C@H]3[C@@H]1CC[C@@H]2O", "note": "[ESTRADIOL]", "values": [
      {"measurement": "Kd", "setting": "Sulfotransferase 1A1 [1]", "value": 2300, "unit": "nM"},
      {"measurement": "Kd", "setting": "Sulfotransferase 1A1 [2]", "value": 1200, "unit": "nM"}
    ]}
  ]
}
